Test results: ChEMBL document CHEMBL5113390, “Design, synthesis and antitumor evaluation of novel 1H-indole-2-carboxylic acid derivatives targeting 14-3-3η protein” (Eur J Med Chem, 2022)

Tested on: Bel-7402
Assay: Antiproliferative activity against human Bel-7402 cells assessed as reduction in cell viability incubated for 72 hrs by MTT assay
Type: functional, cell-based
Conditions: Bel-7402, 72 h

Compound | IC50 [µM]
COc1ccc(Cn2c(C(=O)O)c(CNCc3ccc(O)c(OC)c3)c3ccc(C)cc32)cc1 | 13.3
COc1ccc(Cn2c(C(=O)O)c(CNC(=O)c3cccc(OC)c3)c3ccc(C)cc32)cc1 | > 50
COc1cccc(CNCc2c(C(=O)O)n(Cc3ccccc3)c3ccccc23)c1 | > 50
COc1ccc(Cn2c(C(=O)O)c(CNCc3cc(OC)ccc3O)c3ccc(C)cc32)cc1 | > 50
COc1cccc(CNCc2c(C(=O)O)n(Cc3ccc(O)cc3)c3cc(C)ccc23)c1 | > 50
COc1cccc(CNCc2c(C(=O)O)n(Cc3ccccc3F)c3ccccc23)c1 | > 50
COc1cccc(CNCc2c(C(=O)O)n(Cc3ccc(O)cc3)c3ccccc23)c1 | > 50
COc1ccc(Cn2c(C(=O)O)c(CNCc3cccc(O)c3)c3ccccc32)cc1 | > 50

Further lines, results first:

IC50 [µM] | Compound
9.57 | COc1cccc(CNCc2c(C(=O)O)n(Cc3ccc(N)cc3)c3cc(C(C)C)ccc23)c1
8.38 | COc1ccc(Cn2c(C(=O)O)c(CNCc3ccc(O)c(OC)c3)c3ccc(C(C)C)cc32)cc1
7.08 | COc1cccc(CNCc2c(C(=O)O)n(Cc3ccc(O)cc3)c3cc(C(C)C)ccc23)c1
12.5 | COc1cccc(CNCc2c(C(=O)O)n(Cc3ccccc3)c3cc(C)ccc23)c1
5.59 | COc1cccc(CNCc2c(C(=O)O)n(Cc3ccccc3F)c3cc(C(C)C)ccc23)c1
9.83 | COc1ccc(Cn2c(C(=O)O)c(CNCc3cccc(OC)c3)c3ccc(C)cc32)cc1

Tested on: SMMC-7721
Assay: Antiproliferative activity against human SMMC-7721 cells assessed as reduction in cell viability incubated for 72 hrs by MTT assay
Type: functional, cell-based
Conditions: SMMC-7721, 72 h

IC50 [µM] | Compound
7.73 | COc1ccc(Cn2c(C(=O)O)c(CNCc3ccc(O)c(OC)c3)c3ccc(C)cc32)cc1
11.3 | COc1cccc(CNCc2c(C(=O)O)n(Cc3ccc(N)cc3)c3cc(C(C)C)ccc23)c1
5.83 | COc1ccc(Cn2c(C(=O)O)c(CNCc3ccc(O)c(OC)c3)c3ccc(C(C)C)cc32)cc1
3.73 | COc1cccc(CNCc2c(C(=O)O)n(Cc3ccc(O)cc3)c3cc(C(C)C)ccc23)c1
4.72 | COc1cccc(CNCc2c(C(=O)O)n(Cc3ccccc3)c3cc(C)ccc23)c1
3.23 | COc1cccc(CNCc2c(C(=O)O)n(Cc3ccccc3F)c3cc(C(C)C)ccc23)c1

Tested on: SNU-387
Assay: Antiproliferative activity against human SNU-387 cells assessed as reduction in cell viability incubated for 72 hrs by MTT assay
Type: functional, cell-based
Conditions: SNU-387, 72 h

IC50 [µM] | Compound
6.15 | COc1ccc(Cn2c(C(=O)O)c(CNCc3ccc(O)c(OC)c3)c3ccc(C)cc32)cc1
9.01 | COc1cccc(CNCc2c(C(=O)O)n(Cc3ccc(N)cc3)c3cc(C(C)C)ccc23)c1
5.4 | COc1ccc(Cn2c(C(=O)O)c(CNCc3ccc(O)c(OC)c3)c3ccc(C(C)C)cc32)cc1
5.13 | COc1cccc(CNCc2c(C(=O)O)n(Cc3ccc(O)cc3)c3cc(C(C)C)ccc23)c1
8.17 | COc1cccc(CNCc2c(C(=O)O)n(Cc3ccccc3)c3cc(C)ccc23)c1
6.09 | COc1cccc(CNCc2c(C(=O)O)n(Cc3ccccc3F)c3cc(C(C)C)ccc23)c1

Tested on: HepG2
Assay: Antiproliferative activity against human HepG2 cells assessed as reduction in cell viability incubated for 72 hrs by MTT assay
Type: functional, cell-based
Conditions: HepG2, 72 h

IC50 [µM] | Compound
3.74 | COc1ccc(Cn2c(C(=O)O)c(CNCc3ccc(O)c(OC)c3)c3ccc(C)cc32)cc1
7.4 | COc1cccc(CNCc2c(C(=O)O)n(Cc3ccc(N)cc3)c3cc(C(C)C)ccc23)c1
3.66 | COc1ccc(Cn2c(C(=O)O)c(CNCc3ccc(O)c(OC)c3)c3ccc(C(C)C)cc32)cc1
1.63 | COc1cccc(CNCc2c(C(=O)O)n(Cc3ccc(O)cc3)c3cc(C(C)C)ccc23)c1
5.21 | COc1cccc(CNCc2c(C(=O)O)n(Cc3ccccc3)c3cc(C)ccc23)c1
3.3 | COc1cccc(CNCc2c(C(=O)O)n(Cc3ccccc3F)c3cc(C(C)C)ccc23)c1

Tested on: Hep 3B2
Assay: Antiproliferative activity against human Hep3B cells assessed as reduction in cell viability incubated for 72 hrs by MTT assay
Type: functional, cell-based
Conditions: not given

Compound | IC50 [µM]
COc1ccc(Cn2c(C(=O)O)c(CNCc3ccc(O)c(OC)c3)c3ccc(C)cc32)cc1 | 8.2
COc1cccc(CNCc2c(C(=O)O)n(Cc3ccc(N)cc3)c3cc(C(C)C)ccc23)c1 | 11.2
COc1ccc(Cn2c(C(=O)O)c(CNCc3ccc(O)c(OC)c3)c3ccc(C(C)C)cc32)cc1 | 4.71
COc1cccc(CNCc2c(C(=O)O)n(Cc3ccc(O)cc3)c3cc(C(C)C)ccc23)c1 | 5.34
COc1cccc(CNCc2c(C(=O)O)n(Cc3ccccc3)c3cc(C)ccc23)c1 | 7.31
COc1cccc(CNCc2c(C(=O)O)n(Cc3ccccc3F)c3cc(C(C)C)ccc23)c1 | 5.19

Tested on: Bel7402/5-FU
Assay: Antiproliferative activity against human BEL-7402/5-FU cells overexpressing 14-3-3 eta assessed as reduction in cell viability incubated for 72 hrs by MTT assay
Type: functional, cell-based
Conditions: not given

IC50 [µM] | Compound
> 50 | COc1ccc(Cn2c(C(=O)O)c(CNCc3ccc(O)c(OC)c3)c3ccc(C)cc32)cc1
> 50 | COc1cccc(CNCc2c(C(=O)O)n(Cc3ccc(N)cc3)c3cc(C(C)C)ccc23)c1
7.9 | COc1ccc(Cn2c(C(=O)O)c(CNCc3ccc(O)c(OC)c3)c3ccc(C(C)C)cc32)cc1
> 50 | COc1cccc(CNCc2c(C(=O)O)n(Cc3ccc(O)cc3)c3cc(C(C)C)ccc23)c1
12.1 | COc1cccc(CNCc2c(C(=O)O)n(Cc3ccccc3)c3cc(C)ccc23)c1
5.21 | COc1cccc(CNCc2c(C(=O)O)n(Cc3ccccc3F)c3cc(C(C)C)ccc23)c1

Target: T1, 14-3-3 protein eta (Homo sapiens, UniProt Q04917)
T1 sequence (Q04917 whole entry): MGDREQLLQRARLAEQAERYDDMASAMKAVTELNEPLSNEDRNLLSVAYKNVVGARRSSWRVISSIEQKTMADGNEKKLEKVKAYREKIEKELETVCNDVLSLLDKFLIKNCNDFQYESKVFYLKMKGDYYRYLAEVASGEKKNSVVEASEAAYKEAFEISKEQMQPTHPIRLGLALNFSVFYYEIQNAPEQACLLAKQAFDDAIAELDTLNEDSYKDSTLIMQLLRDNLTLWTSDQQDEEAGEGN
Assay: Binding affinity to 14-3-3 eta (unknown origin) assessed as dissociation constant by biolayer interferometry assay
Conditions: not given

Compound | Kd [µM]
COc1ccc(Cn2c(C(=O)O)c(CNCc3ccc(O)c(OC)c3)c3ccc(C)cc32)cc1 | > 200
COc1ccc(Cn2c(C(=O)O)c(CNC(=O)c3cccc(OC)c3)c3ccc(C)cc32)cc1 | 56
O=[As][As+](=O)[O-] (centres undefined) [ARSENIC TRIOXIDE] | 110

The remaining lines, values ahead:

Kd [µM] | Compound
74 | COc1cccc(CNCc2c(C(=O)O)n(Cc3ccc(O)cc3)c3cc(C(C)C)ccc23)c1
37 | COc1cccc(CNCc2c(C(=O)O)n(Cc3ccccc3F)c3cc(C(C)C)ccc23)c1
